From patent US9255072B2, “Pyrazole compounds and thiazole compounds as protein kinases inhibitors” (National Health Rsearch Institutes, priority 2011, dated 2016)
pIC50: −log10 of the molar value. Read-outs that look alike come from different tables or passages of the source.

Key:
Format in all cases: biochemical
Aurora A = biological target: T1, Aurora A (Homo sapiens, UniProt O14965); assay: Aurora kinase A Kinase-Glo kinase assay; conditions: Aurora A assay, 5 μM ATP, read-out: IC50
T1 construct: GST-Aurora A (residues S123-S401); GST (N); made in house; host or cells: Sf9 insect cells
T1 sequence (O14965 123-401): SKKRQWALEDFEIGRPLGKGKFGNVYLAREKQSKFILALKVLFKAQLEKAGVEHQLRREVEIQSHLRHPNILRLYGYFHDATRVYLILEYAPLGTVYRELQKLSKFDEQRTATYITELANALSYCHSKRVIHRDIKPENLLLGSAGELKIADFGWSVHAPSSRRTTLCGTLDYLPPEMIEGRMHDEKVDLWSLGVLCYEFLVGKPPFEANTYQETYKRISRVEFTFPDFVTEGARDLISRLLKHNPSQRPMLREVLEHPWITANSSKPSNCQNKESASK
Procedure: The recombinant GST-Aurora A (residues S123-S401) containing kinase domain were expressed in Sf9 insect cells. The kinase assay were carried out in 96-well plates with tested compound in a final volume of 50 μl reaction at 37° C. for 90 minutes with following components: 50 mM Tris-HCl pH 7.4, 10 mM NaCl, 10 mM MgCl2, 0.01% BSA, 5 μM ATP, 1 mM DTT and 15 μM tetra(LRRASLG) peptide, and 150 ng recombinant Aurora A. Following incubation, 50 μl Kinase-Glo Plus Reagent (Promega, Madison, Wis., USA) was added to each well and the mixture was incubated at 25° C. for 20 min. A 70-μL aliquot of each reaction mixture was transferred to a black microtiter plate and the luminescence was measured on Wallac Vector 1420 multilabel counter (PerkinElmer, Shelton, Conn., USA).

wt-FLT3 = biological target: T2, wt-FLT3 (Homo sapiens, UniProt P36888); assay: FLT3 WT Kinase-Glo assay; conditions: FLT3 WT Kinase-Glo, 1 μM ATP; read-out: IC50
T2 construct: FLT3 kinase catalytic domain (residues Y567˜S993); made in house; host or cells: Sf9 insect cells (baculovirus, pBac-PAK8-GST-FLT3-KD plasmid)
T2 sequence (P36888 567-993): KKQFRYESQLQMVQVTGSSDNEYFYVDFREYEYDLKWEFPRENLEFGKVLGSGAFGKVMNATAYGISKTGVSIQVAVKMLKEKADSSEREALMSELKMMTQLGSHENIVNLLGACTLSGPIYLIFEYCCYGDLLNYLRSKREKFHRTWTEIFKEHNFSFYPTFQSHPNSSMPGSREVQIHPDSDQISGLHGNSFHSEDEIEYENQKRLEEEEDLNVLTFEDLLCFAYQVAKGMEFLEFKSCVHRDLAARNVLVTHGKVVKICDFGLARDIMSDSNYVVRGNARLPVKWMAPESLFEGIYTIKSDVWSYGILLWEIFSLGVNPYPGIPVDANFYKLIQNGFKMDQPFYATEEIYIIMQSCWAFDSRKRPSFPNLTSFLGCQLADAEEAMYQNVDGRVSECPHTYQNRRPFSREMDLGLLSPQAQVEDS
Procedure: GST-FLT3-KD^WT containing the FLT3 kinase catalytic domain (residues Y567˜S993) were expressed in Sf9 insect cells transfected the baculovirus containing pBac-PAK8-GST-FLT3-KD plasmid. […] Following incubation, 50 μl Kinase-Glo Plus Reagent (Promega, Madison, Wis., USA) was added to each well and the mixture was incubated at 25° C. for 20 min. A 70-μL aliquot of each reaction mixture was transferred to a black microtiter plate and the luminescence was measured on Wallac Vector 1420 multilabel counter (PerkinElmer, Shelton, Conn., USA).

VEGFR1 = biological target: T3, VEGFR1 (Homo sapiens, UniProt P17948); assay: VEGFR1 Kinase-Glo kinase assay; conditions: VEGFR1 assay, 1 μM ATP, read-out: IC50
T3 construct: GST-VEGFR1 (residues R781-I1338); GST (N); made in house; host or cells: Sf9 insect cells
T3 sequence (P17948 781-1338): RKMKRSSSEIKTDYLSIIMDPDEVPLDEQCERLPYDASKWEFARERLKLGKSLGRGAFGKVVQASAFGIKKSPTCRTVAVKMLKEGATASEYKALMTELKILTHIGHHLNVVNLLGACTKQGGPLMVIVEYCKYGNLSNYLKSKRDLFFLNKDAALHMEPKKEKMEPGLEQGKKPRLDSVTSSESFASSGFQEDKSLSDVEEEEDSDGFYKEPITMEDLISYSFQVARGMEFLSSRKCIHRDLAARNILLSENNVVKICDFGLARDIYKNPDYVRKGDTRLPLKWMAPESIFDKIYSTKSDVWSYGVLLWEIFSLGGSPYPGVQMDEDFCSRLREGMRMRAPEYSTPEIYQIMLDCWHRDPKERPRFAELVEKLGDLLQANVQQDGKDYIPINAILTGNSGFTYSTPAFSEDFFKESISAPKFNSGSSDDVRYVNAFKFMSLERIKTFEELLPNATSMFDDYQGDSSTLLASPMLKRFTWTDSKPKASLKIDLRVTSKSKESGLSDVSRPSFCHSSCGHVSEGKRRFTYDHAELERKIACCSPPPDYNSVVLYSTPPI
Procedure: (§1) The recombinant GST-VEGFR1 (residues R781-I1338) or GST-VEGFR2 (residues V789-V1356) containing kinase domain were expressed in Sf9 insect cells. The kinase assay were carried out in 96-well plates with tested compound in a final volume of 50 μl reaction at 30° C. for 120 minutes with following components: 25 mM HEPES pH 7.4, 10 mM MgCl2, 4 mM MnCl2, 0.5 mM Na3VO4, 2 mM DTT, 0.02% Triton X100, 0.01% BSA, 1 μM ATP, 2 μM polyGlu4:Tyr peptide, 50˜100 ng recombinant VEGFR1 or VEGFR2. Following incubation, 50 μl Kinase-Glo Plus Reagent (Promega, Madison, Wis., USA) was added to each well and the mixture was incubated at 25° C. for 20 min. A 70-μL aliquot of each reaction mixture was transferred to a black microtiter plate and the luminescence was measured on Wallac Vector 1420 multilabel counter (PerkinElmer, Shelton, Conn., USA).

VEGFR2 = biological target: T4, VEGFR2 (Homo sapiens, UniProt P35968); assay: VEGFR2 Kinase-Glo kinase assay; conditions: VEGFR2 assay, 1 μM ATP, read-out: IC50
T4 construct: GST-VEGFR2 (residues V789-V1356); GST (N); made in house; host or cells: Sf9 insect cells
T4 sequence (P35968 789-1356): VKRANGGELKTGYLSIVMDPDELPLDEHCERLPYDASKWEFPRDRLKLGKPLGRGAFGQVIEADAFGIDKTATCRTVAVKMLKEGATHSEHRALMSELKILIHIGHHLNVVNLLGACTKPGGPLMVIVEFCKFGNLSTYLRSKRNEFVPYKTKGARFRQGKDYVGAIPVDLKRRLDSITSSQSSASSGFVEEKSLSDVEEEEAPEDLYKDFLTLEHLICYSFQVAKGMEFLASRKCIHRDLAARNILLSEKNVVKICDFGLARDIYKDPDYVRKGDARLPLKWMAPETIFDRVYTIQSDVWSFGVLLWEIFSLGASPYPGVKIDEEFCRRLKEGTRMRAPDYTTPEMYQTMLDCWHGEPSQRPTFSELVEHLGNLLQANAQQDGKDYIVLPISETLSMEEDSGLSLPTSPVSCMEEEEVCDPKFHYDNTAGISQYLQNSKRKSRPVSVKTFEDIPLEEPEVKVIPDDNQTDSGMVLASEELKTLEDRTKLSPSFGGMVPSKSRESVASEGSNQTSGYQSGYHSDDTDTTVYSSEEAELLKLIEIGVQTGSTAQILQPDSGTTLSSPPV
Procedure: as §1

CN1CCN(c2ccc(C(=O)Nc3cc(-c4ccc(NC(=O)c5ccccc5)cc4)n[nH]3)cc2)CC1 [Compound 10, N1-3-[4-(benzoylamino)phenyl]-1H-5-pyrazolyl-4-(4-methylpiperazino)benzamide]
IC50 (Aurora A; bound in nM): < 200 nM | IC50 (Aurora A; bound in μM): < 1000 nM

CCN1CCN(c2cc(Nc3ncc(-c4ccc(N)cc4)s3)nc(C)n2)CC1 [Compound 102]
pIC50 (wt-FLT3): 7.70 to 9.00 | IC50 (Aurora A; bound in nM): < 200 nM

Cc1nc(Nc2cc(-c3cccc(NS(=O)(=O)c4ccccc4)c3)n[nH]2)cc(N2CCN(C)CC2)n1 [Compound 85, N1-[3-(5-[2-methyl-6-(4-methylpiperazino)-4-pyrimidinyl]amino-1H-3-pyrazolyl)phenyl]-1-benzenesulfonamide]
IC50 (VEGFR1; bound in μM): < 1 µM | pIC50 (wt-FLT3): 7.70 to 9.00 | IC50 (VEGFR2; bound in μM): < 1 µM | IC50 (VEGFR2; ranges in nM): 0.055 to 0.4 µM | IC50 (Aurora A; bound in μM): < 1000 nM

Cc1cc(NC(=O)Nc2ccc(-c3cc(NC(=O)c4ccc(N5CCN(C)CC5)cc4)[nH]n3)cc2)no1 [Compound 32, N1-3-[4-([(5-methyl-3-isoxazolyl)amino]carbonylamino)phenyl]-1H-5-pyrazolyl-4-(4-methylpiperazino)benzamide]
IC50 (VEGFR1; bound in μM): < 1 µM | pIC50 (wt-FLT3): 7.70 to 9.00 | IC50 (VEGFR2; bound in μM): < 1 µM | IC50 (VEGFR2; ranges in nM): 0.001 to 0.055 µM | IC50 (Aurora A; bound in nM): < 200 nM | IC50 (Aurora A; bound in μM): < 1000 nM

Cc1cccc(S(=O)(=O)Nc2cccc(-c3cc(NC(=O)c4ccc(N5CCN(C)CC5)cc4)[nH]n3)c2)c1 [Compound 15, N1-[3-(3-[(3-methylphenyl)sulfonyl]aminophenyl)-1H-5-pyrazolyl]-4-(4-methylpiperazino)benzamide]
IC50 (VEGFR1; bound in μM): < 1 µM | pIC50 (wt-FLT3): 7.70 to 9.00 | IC50 (VEGFR2; bound in μM): < 1 µM | IC50 (VEGFR2; ranges in nM): 0.055 to 0.4 µM | IC50 (Aurora A; bound in μM): < 1000 nM

Cc1cc(NC(=O)Nc2ccc(-c3cnc(NC(=O)c4ccc(OCCN5CCOCC5)cc4)s3)cc2)no1 [Compound 120, N1-5-[4-([(5-methyl-3-isoxazolyl)amino]carbonylamino)phenyl]-1,3-thiazol-2-yl-4-(2-morpholinoethoxy)benzamide]
IC50 (Aurora A; bound in nM): < 200 nM

CN1CCN(c2ccc(C(=O)Nc3cc(-c4cccc(NS(=O)(=O)c5ccccc5)c4)n[nH]3)cc2)CC1 [Compound 12, N1-(3-3-[(phenylsulfonyl)amino]phenyl-1H-5-pyrazolyl)-4-(4-methylpiperazino)benzamide]
IC50 (VEGFR1; bound in μM): < 1 µM | pIC50 (wt-FLT3): 7.70 to 9.00 | IC50 (VEGFR2; bound in μM): < 1 µM | IC50 (VEGFR2; ranges in nM): 0.055 to 0.4 µM | IC50 (Aurora A; bound in μM): < 1000 nM

Cc1nc(Nc2ncc(-c3ccc(NC(=O)Nc4cc(C)on4)cc3)s2)cc(N2CCN(C)CC2)n1 [Compound 103, N-(5-methyl-3-isoxazolyl)-N′-[4-(2-[2-methyl-6-(4-methylpiperazino)-4-pyrimidinyl]amino-1,3-thiazol-5-yl)phenyl]urea]
IC50 (Aurora A; bound in μM): < 1000 nM

CN1CCN(c2ccc(C(=O)Nc3cc(-c4ccc(CNC(=O)OCc5ccccc5)cc4)n[nH]3)cc2)CC1 [Compound 70, Benzyl-N-[4-(5-[4-(4-methylpiperazino)benzoyl]amino-1H-3-pyrazolyl)benzyl]carbamate]
IC50 (VEGFR1; bound in nM): < 0.1 µM | IC50 (VEGFR1; bound in μM): < 1 µM | pIC50 (wt-FLT3): 7.70 to 9.00 | IC50 (VEGFR2; bound in μM): < 1 µM | IC50 (VEGFR2; ranges in nM): 0.055 to 0.4 µM | IC50 (Aurora A; bound in μM): < 1000 nM

CC(C)(C)c1cc(NC(=O)Nc2ccc(-c3cc(NC(=O)c4ccc(OCCN5CCOCC5)cc4)[nH]n3)cc2)no1 [Compound 44, N1-(3-4-[([5-(tert-butyl)-3-isoxazolyl]aminocarbonyl)amino]phenyl-1H-5-pyrazolyl)-4-(2-morpholinoethoxy)benzamide]
IC50 (VEGFR1; bound in nM): < 0.1 µM | IC50 (VEGFR1; bound in μM): < 1 µM | pIC50 (wt-FLT3): 7.70 to 9.00 | IC50 (VEGFR2; bound in μM): < 1 µM | IC50 (VEGFR2; ranges in nM): 0.001 to 0.055 µM | IC50 (Aurora A; bound in nM): < 200 nM | IC50 (Aurora A; bound in μM): < 1000 nM

O=C(NCc1ccc(-c2cc(NC(=O)c3ccc(OCCN4CCOCC4)cc3)[nH]n2)cc1)Nc1ccccc1 [Compound 61a, N1-[3-(4-[(anilinocarbonyl)amino]methylphenyl)-1H-5-pyrazolyl]-4-(2-morpholinoethoxy)benzamide]
pIC50 (wt-FLT3): 7.70 to 9.00 | IC50 (VEGFR2; bound in μM): < 1 µM | IC50 (VEGFR2; ranges in nM): 0.001 to 0.055 µM | IC50 (Aurora A; bound in μM): < 1000 nM

CN1CCN(Cc2ccc(C(=O)Nc3cc(-c4ccc(NC(=O)Nc5cc(C(C)(C)C)on5)cc4)n[nH]3)cc2)CC1 [Compound 43, N1-(3-4-[([5-(tert-butyl)-3-isoxazolyl]aminocarbonyl)amino]phenyl-1H-5-pyrazolyl)-4-[(4-methylpiperazino)methyl]benzamide]
IC50 (VEGFR1; bound in nM): < 0.1 µM | IC50 (VEGFR1; bound in μM): < 1 µM | pIC50 (wt-FLT3): 7.70 to 9.00 | IC50 (VEGFR2; bound in μM): < 1 µM | IC50 (VEGFR2; ranges in nM): 0.001 to 0.055 µM | IC50 (Aurora A; bound in nM): < 200 nM | IC50 (Aurora A; bound in μM): < 1000 nM

Cc1cc(NC(=O)Nc2ccc(-c3cc(NC(=O)c4ccc(N5CCN(C)CC5)cc4)[nH]n3)cc2C)no1 [Compound 47, N1-3-[3-methyl-4-([(5-methyl-3-isoxazolyl)amino]carbonylamino)phenyl]-1H-5-pyrazolyl-4-(4-methylpiperazino)benzamide]
pIC50 (wt-FLT3): 7.70 to 9.00 | IC50 (VEGFR2; bound in μM): < 1 µM | IC50 (VEGFR2; ranges in nM): 0.001 to 0.055 µM | IC50 (Aurora A; bound in μM): < 1000 nM

CN1CCN(c2ccc(C(=O)Nc3cc(-c4ccc(NC(=O)Nc5ccccc5)cc4)n[nH]3)cc2)CC1 [Compound 30, N1-(3-4-[(anilinocarbonyl)amino]phenyl-1H-5-pyrazolyl)-4-(4-methylpiperazino)benzamide]
pIC50 (wt-FLT3): 7.70 to 9.00 | IC50 (VEGFR2; bound in μM): < 1 µM | IC50 (VEGFR2; ranges in nM): 0.001 to 0.055 µM | IC50 (Aurora A; bound in μM): < 1000 nM
